# Data: US20250032388A1, “PERSONAL CARE COMPOSITIONS FOR SENSITIVE SKIN AND METHODS OF USE” (Galderma Holding SA, priority 2022, published 2025)
# System: NADPH oxidase
# Test: NADPH-oxidase activity in pollution-exposed fibroblasts (Example 6)
# Type: cell-based, human
# Procedure: Method: Cells are incubated for 30 minutes with the test elements (either pollutant or Composition A). NADPH oxidase activity is determined immediately using chemioluminescence. Conditions: Untreated and unexposed to pollution, Untreated and exposed to pollution and Treated with personal care composition and exposed to pollution. As a comparison to the personal care composition, niacinamide was tested at low concentration (“niacinamide (low)”) and high concentration (“niacinamide (high)”) in DMSO. (The high niacinamide concentration was 6.67 times the low niacinamide concentration.) Composition B was diluted until its niacinamide concentration was the same as the niacinamide (low) concentration. The cells used in the study were human primary fibroblasts originating from a healthy donor. As in Example 5, the pollutant was urban standardized particles composed with metals, polyaromatic hydrocarbons (PAHs), nitro-PAHs, PCBs, chlorinated pesticide, etc., of micrometric diameter. NADPH-oxidase activity and mitochondrial associated membranes (MAMs) were experimentally determined and quantified in the same manner as in Example 5.
substance,measurement,setting,value
niacinamide,NADPH oxidase activity relative to NE-NTC,"niacinamide (high) concentration, 6.67 times the low",level below that observed in NE-NTC
same,NADPH oxidase activity relative to NE-NTC,"niacinamide (low) concentration, Composition B diluted to the same niacinamide concentration",level similar to that observed in the NE-NTC
